Data set [1] can be described thus: 19F NMR solvolytic stability of difluoro-dioxaborinins in water/DMSO. The class given is physicochemical. To be noted: 5.55 M H2O. The method, then:
Radioactive TLC and […]/^19F NMR studies were used to determine the solvolytic stability of difluoro-dioxaborinins.
Some difluoro-dioxaborinins are insoluble in water; therefore, solvolytic studies on these compounds were determined in 10% H2O/90% DMSO (5.55 M H2O, deionized). To relate the effect of water concentration to solvolysis, solvolytic studies on all water-soluble difluoro-dioxaborinins (DK-1, DK-2, DK-3, DK-6 and DK-15) were performed twice: once in 10% H2O/90% DMSO (5.55 M H2O) (FIG. 2A), and again in 90% H2O/10% DMSO (50 M H2O) (FIG. 2B). Studies performed in 50 M H2O reflect physiologically appropriate conditions, and allow comparison to literature aryl/alkyl trifluoroborate and dipyrromethene solvolytic stability measurements.^11, 14 Characterization in solutions with reduced water content, 5.55 M H2O, allows comparison of solvolytic rate constants to those of less-soluble difluoro-dioxaborinins. Difluorodioxaborinins solvolysis is not observed in pure (100%) DMSO.
The coefficient of determination (R^2) in all ^19F NMR solvolysis data closely follows single, 2 parameter exponential decay regression (f=a*exp(−k*x), R2 >0.99 in 88% of experiments).

The test system of data set [2] is sentinel (popliteal) lymph node. The data set is described as follows: Sentinel lymph node fluorescence imaging (IVIS) and histology in mouse. The class given is in vivo. The procedure:
FIGS. 3A-F: Sentinel lymph node imaging using [^18F]-6F-Cur-BF2 according to the working examples. […] Distal lymph nodes (lumbar, iliac lymph nodes^30) are not observed. […] A 200 μCi dose of [^18F]-6F-Cur-BF2 and Magnevist (MRI contrast agent) were injected into the right rear paw of […]. The injection site (bottom arrow) and sentinel lymph node (popliteal, upper arrows) are visible at 5 min. FIGS. 3D-3F show popliteal (sentinel) lymph node imaging 2 hours post injection into the back paw with a Pre-Clinical IVIS. Optical/Computed Tomography In Vivo Imaging System (Excitation filter centered at 430 nm and emission filter centered at 520 nm. Exposure time=1 s). […] White arrows in FIGS. 3D-3F indicate the lymph nodes.
FIG. 5 provides the histology of the collected lymph node from the mouse in FIG. 4A. The mouse lymph node was collected at 2 hours post injection into the right, rear footpad. The collected lymph node was frozen with OCT Gel and cut with a thickness of […]. The slice was, imaged with fluorescence microscope at the channel of 6F-Cur-BF2.
Applicant attempted sentinel lymph node imaging with [^18F]-6FCur-BF2 by fluorescence with 430 nm excitation and 520 nm emission filters. […] The collected lymph node is confirmed in histology.

Data set [3] can be described thus: Optical properties (absorbance, fluorescence emission, quantum yield). The class given is physicochemical.

One compound from patent US12378261B2, “One-step, fast, 18F-19F isotopic exchange radiolabeling of difluoro-dioxaborinins and use of such compounds in treatment” (CORNELL UNIVERSITY, priority 2018, dated 2025) can be followed below.

As to `COc1cc(/C=C/C2=CC(/C=C/c3ccc(OC(=O)c4c(F)cc(F)cc4F)c(OC)c3)=[O+][B-](F)(F)O2)ccc1OC(=O)c1c(F)cc(F)cc1F` [6F-Cur-BF2], in data set [1], the “fold more rapid solvolysis than Cur-BF2” value worked out at 33 and the “fold slower solvolysis (more stable) than DK-1” value is 1.6. For the same compound, in data set [2] (mouse lymph node collected 2 hours post injection), the “fluorescence in collected lymph node (histology)” value was “observed in the lymph node”. The “sentinel node visualization by fluorescence through the skin” value in data set [2] (mouse, 430 nm excitation, 520 nm emission filters, 2 hours post injection) is on record as “the sentinel node is difficult to visualize through the skin”. For the same compound, in data set [3], the Abs is listed as 430 nm, the Em is given as 512 nm, the “Extinction Coefficient” value is listed as 50,800 cm^−1M^−1 and the “Stokes Shift” value is reported as 82 nm. The compound further came in with a Quantum yield in data set [3] (Methanol) of 3.0%.
